This note sets out measurements from US8039496B2, “Therapeutic compounds” (Allergan, Inc., priority 2007, dated 2011).

Read-outs that look alike come from different tables or passages of the source.

A word on the Ki: it is a measure of affinity in units of concentration, obtained from inhibition or displacement.

One assay addresses T1, hEP1 (Homo sapiens, UniProt P34995).
T1 sequence (P34995 1-402): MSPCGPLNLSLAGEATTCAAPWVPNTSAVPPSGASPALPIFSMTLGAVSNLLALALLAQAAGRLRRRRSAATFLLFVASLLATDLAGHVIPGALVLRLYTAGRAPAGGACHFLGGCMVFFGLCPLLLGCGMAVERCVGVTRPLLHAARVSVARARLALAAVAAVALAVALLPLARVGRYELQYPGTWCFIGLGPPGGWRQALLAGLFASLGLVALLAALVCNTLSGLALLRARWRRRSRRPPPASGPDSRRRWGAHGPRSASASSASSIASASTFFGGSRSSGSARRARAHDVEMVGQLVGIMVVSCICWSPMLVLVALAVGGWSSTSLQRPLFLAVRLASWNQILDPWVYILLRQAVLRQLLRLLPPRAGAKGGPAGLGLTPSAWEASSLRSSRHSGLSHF
The experiment in a line: Other receptors: hEP1. The class given is cell-based. An excerpt:
(§1) U.S. patent application Ser. No. 11/553,143, filed on Oct. 26, 2006, describes the methods used to obtain the in vitro data in the table below.

Assay [1] has as its target T2, hEP4 (Homo sapiens, UniProt P35408). The experiment in a line: hEP4 flipr functional assay. The class given is cell-based.
Text: as §1

In assay [2] the target is T3, hEP2 (Homo sapiens, UniProt P43116). The experiment in a line: hEP2 cAMP functional assay. The class given is cell-based.
Text: as §1

The target in assay [3] is T2, hEP4. The experiment in a line: hEP4 binding (Ki).
Text: as §1

For a further assay, the target named is T4, hDP (Homo sapiens, UniProt Q13258).
T4 sequence (Q13258 1-359): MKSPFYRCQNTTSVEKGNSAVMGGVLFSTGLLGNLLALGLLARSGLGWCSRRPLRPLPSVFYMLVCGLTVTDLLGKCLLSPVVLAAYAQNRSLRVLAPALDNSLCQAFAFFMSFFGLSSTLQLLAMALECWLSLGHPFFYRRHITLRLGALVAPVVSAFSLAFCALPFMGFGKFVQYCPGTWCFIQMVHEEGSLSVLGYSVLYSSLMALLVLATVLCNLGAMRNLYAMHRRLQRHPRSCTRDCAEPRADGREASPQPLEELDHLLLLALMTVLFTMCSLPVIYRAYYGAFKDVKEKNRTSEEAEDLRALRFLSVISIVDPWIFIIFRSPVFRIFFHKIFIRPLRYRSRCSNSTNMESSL
The experiment in a line: Other receptors: hDP. The assay is classed as cell-based.
Text: as §1

Assay [4] addresses T3, hEP2. The experiment in a line: hEP2 flipr functional assay. The class given is cell-based.
Text: as §1

Assay [5] addresses T3, hEP2. The experiment in a line: hEP2 binding (Ki).
Text: as §1

The target of a further assay is T5, hEP3 (Homo sapiens, UniProt P43115).
T5 sequence (P43115 1-390): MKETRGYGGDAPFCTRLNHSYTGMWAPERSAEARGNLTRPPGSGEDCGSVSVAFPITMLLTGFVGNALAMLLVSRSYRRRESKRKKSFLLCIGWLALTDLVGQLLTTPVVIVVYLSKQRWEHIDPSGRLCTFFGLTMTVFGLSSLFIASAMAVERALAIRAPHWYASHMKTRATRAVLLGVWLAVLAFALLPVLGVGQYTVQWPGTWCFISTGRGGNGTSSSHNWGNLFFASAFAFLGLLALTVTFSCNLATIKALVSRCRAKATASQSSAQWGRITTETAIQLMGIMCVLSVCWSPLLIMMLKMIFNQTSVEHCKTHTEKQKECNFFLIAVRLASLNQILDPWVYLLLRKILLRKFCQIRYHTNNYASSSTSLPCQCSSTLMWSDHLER
The experiment in a line: Other receptors: hEP3 / hEP3A. The class given is cell-based.
Text: as §1

Another assay addresses T6, hTP (Homo sapiens, UniProt P21731).
T6 sequence (P21731 1-343): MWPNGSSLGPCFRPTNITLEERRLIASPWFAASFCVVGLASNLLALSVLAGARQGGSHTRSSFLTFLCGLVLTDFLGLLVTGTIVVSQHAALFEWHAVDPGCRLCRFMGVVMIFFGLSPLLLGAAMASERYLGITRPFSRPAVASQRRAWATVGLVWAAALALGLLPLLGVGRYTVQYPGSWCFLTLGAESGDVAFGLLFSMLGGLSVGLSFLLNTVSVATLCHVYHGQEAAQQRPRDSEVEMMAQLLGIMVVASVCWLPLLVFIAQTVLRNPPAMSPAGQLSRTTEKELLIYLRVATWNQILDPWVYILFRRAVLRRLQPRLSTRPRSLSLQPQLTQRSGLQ
The experiment in a line: Other receptors: hTP. Conditions: the 2nd table. The assay is classed as cell-based.
Text: as §1

The mark [6] stands for this setting: the 3rd table, read-out: Other Receptors (ED50 in nM) hEP1.
Where [7] appears, read: the 3rd table, read-out: EP4 data flipr EC50.
Where [8] appears, read: the 3rd table, read-out: EP2 data cAMP EC50.
[9] abbreviates: the 3rd table, read-out: EP4 data KI.
The mark [10] stands for this setting: the 3rd table, read-out: EP2 data flipr EC50.
Where [11] appears, read: the 3rd table, read-out: EP2 data Ki.
Where [12] appears, read: the 3rd table, read-out: Other Receptors (ED50 in nM) hEP3A.
Setting [13] is: the 2nd table, read-out: hEP2 cAMP EC50.
The mark [14] stands for this setting: the 2nd table, read-out: hEP2 flipr EC50.
Setting [15] is: the 2nd table, read-out: hEP2 Ki.
[16] abbreviates: the 2nd table, read-out: Other Receptors hEP3.

T3 sequence (P43116 whole entry): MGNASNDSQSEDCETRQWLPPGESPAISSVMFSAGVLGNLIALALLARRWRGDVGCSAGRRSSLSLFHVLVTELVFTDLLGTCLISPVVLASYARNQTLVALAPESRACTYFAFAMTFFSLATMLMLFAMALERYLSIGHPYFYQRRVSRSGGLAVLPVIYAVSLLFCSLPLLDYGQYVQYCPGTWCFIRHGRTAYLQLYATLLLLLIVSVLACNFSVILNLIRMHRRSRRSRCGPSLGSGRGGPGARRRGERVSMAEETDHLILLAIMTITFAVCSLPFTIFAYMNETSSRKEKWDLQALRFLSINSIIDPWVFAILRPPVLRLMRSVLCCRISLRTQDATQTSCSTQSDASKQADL
T2 sequence (P35408 whole entry): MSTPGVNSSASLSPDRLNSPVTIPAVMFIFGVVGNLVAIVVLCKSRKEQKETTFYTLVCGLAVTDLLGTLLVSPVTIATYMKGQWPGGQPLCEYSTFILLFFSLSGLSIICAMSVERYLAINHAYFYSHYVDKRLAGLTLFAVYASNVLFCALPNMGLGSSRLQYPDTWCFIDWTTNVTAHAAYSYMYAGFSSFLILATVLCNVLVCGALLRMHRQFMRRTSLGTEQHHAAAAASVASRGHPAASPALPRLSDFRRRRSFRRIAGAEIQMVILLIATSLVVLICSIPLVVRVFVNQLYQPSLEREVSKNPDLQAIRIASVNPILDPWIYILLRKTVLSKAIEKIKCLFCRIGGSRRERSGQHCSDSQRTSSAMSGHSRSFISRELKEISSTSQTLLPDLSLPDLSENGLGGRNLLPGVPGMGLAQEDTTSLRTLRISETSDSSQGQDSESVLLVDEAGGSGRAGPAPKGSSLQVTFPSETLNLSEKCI

`CCc1cccc(OC[C@@H]2[C@@H](CCCc3ccc(C(=O)O)s3)[C@H](Cl)C[C@H]2O)c1` [5-(3-((1R,2S,3R,5R)-5-chloro-2-((3-ethylphenoxy)methyl)-3-hydroxycyclopentyl)propyl)thiophene-2-carboxylic acid]: the EC50 at hEP1 (setting [6]) was determined as 31500 nM; on hEP4 [1] (setting [7]), 6740 nM; on hEP2 [2] (setting [8]), 0.4 nM; on hDP (the 3rd table, read-out: Other Receptors (ED50 in nM) hDP) it was 4440 nM; at hEP2 [4] (setting [10]) it was 447 nM; on hEP3 (setting [12]) it was 3570 nM. In addition, the Ki at hEP4 [3] (setting [9]) was 214 nM; at hEP2 [5] (setting [11]), 4 nM.

On to `CCCc1cccc(OC[C@@H]2[C@@H](CCCc3ccc(C(=O)O)s3)[C@H](Cl)C[C@H]2O)c1` [5-(3-((1R,2S,3R,5R)-5-chloro-3-hydroxy-2-((3-propylphenoxy)methyl)cyclopentyl)propyl)thiophene-2-carboxylic acid], for which the EC50 at hEP1 (setting [6]) was 17900 nM; at hEP4 [1] (setting [7]) it was greater than 10000 nM; on hEP2 [2] (setting [8]) it was 0.4 nM; at hEP2 [4] (setting [10]), 33 nM; on hEP3 (setting [12]) it was 6520 nM. Moreover, the Ki at hEP4 [3] (setting [9]) was found to be 471 nM; at hEP2 [5] (setting [11]), 6 nM.

Turning to `COCc1cc(Cl)cc(OC[C@@H]2[C@@H](C/C=C\CCCC(=O)O)[C@H](Cl)C[C@H]2O)c1` [(Z)-7-[(1R,2S,3R,5R)-5-Chloro-2-(3-chloro-5-methoxymethyl-phenoxymethyl)-3-hydroxy-cyclopentyl]-hept-5-enoic acid], the EC50 is 5180 nM on hEP1 (the 2nd table, read-out: Other Receptors hEP1); 4820 nM at hEP4 [1] (the 2nd table, read-out: hEP4 flipr EC50); 8 nM on hEP2 [2] (setting [13]); greater than 10000 nM at hTP; 3410 nM at hEP2 [4] (setting [14]); 7210 nM on hEP3 (setting [16]). Besides, the inhibitory constant (Ki) on hEP4 [3] (the 2nd table, read-out: hEP4 Ki) was 1450 nM; at hEP2 [5] (setting [15]), 39 nM.

With `O=C(O)CCC/C=C\C[C@@H]1[C@@H](COc2cc(Cl)cc(CCO)c2)[C@H](O)C[C@H]1Cl` [(Z)-7-{(1R,2S,3R,5R)-5-Chloro-2-[3-chloro-5-(2-hydroxyethyl)-phenoxymethyl]-3-hydroxy-cyclopentyl}-hept-5-enoic acid], the EC50 on hEP2 [2] (setting [13]) was 7 nM; at hDP (the 2nd table, read-out: Other Receptors hDP), greater than 10000 nM; on hTP it was greater than 10000 nM; on hEP2 [4] (setting [14]), 644 nM; at hEP3 (setting [16]), 8830 nM. Further, the inhibition constant Ki at hEP2 [5] (setting [15]) was 107 nM.
